Series [1] can be described thus: Approximate solubility in various solvents. To be noted: for Solubility: approximate. The format is physicochemical. From the text:
In addition, the lower melting point polymorph, Form II, also has significant advantages over the polymorphic mixture of Compound 1 as prepared according to known techniques. […] Form II is generally more soluble in polar and protic solvents than is Form I. Enhanced solubility of a compound will generally increase the bioavailability of that compound. When absorption of a drug is dissolution rate limited, use of the more soluble and faster dissolving form improves the rate and extent of bioavailability.

Series [2] can be described thus: Physical (polymorphic) stability of the solid form. Type of series: physicochemical. To be noted: in words, compared with the polymorphic mixture of Compound 1; stability toward conversion to a different polymorphic form. The text has this: The polymorph Form I is considered a heat stable form of Compound 1. By "heat stable" or ''physically stable" is meant that the Form I is stable toward conversion to the polymorph Form II; although, it may be labile toward degradation to other compounds.
As the higher melting point polymorph, Form I has significant advantages over the polymorphic mixture of Compound 1 prepared according to known techniques. […] This, in turn, enhances the milling and compaction properties of the drug substance.

Structures are written as SMILES. Converted amounts (≈) assume the structure as drawn.

In general, Solubility refers to how much of the substance goes into solution per volume. High values mean a readily soluble substance, low ones a poorly soluble substance. In the case of `CC(=O)N(C)c1cccc(-c2ccnc3c(C(=O)c4cccs4)cnn23)c1` [Form I, N-methyl-N-(3-{3-[2-thienylcarbonyl]-pyrazol-[1,5-α]-pyrimidin-7-yl}phenyl)acetamide], the Solubility is reported as 4842 µg/mL (≈ 12.9 mM) in series [1] (Acetone); 6246 µg/mL (≈ 16.6 mM) in series [1] (Acetonitrile); 8.3 µg/mL (≈ 0.022 mM) in series [1] (De-ionized water); 80 µg/mL (≈ 0.213 mM) in series [1] (Diethyl ether); 1426 µg/mL (≈ 3.79 mM) in series [1] (Ethanol, absolute (100%)); 1600 µg/mL (≈ 4.25 mM) in series [1] (Ethyl acetate). Also, the Solubility in series [1] (Hexane) is 41 µg/mL (≈ 0.109 mM); in series [1] (Isopropanol) it was 441 µg/mL (≈ 1.17 mM); in series [1] (Methanol) it was 1740 µg/mL (≈ 4.62 mM); in series [1] (Polyethylene Glycol 400, NF), 3259 µg/mL (≈ 8.66 mM); in series [1] (Tetrahydrofuran), 9964 µg/mL (≈ 26.5 mM); in series [1] (Toluene) it was 997 µg/mL (≈ 2.65 mM). The physical stability result in series [2] is reported as “superior physical stability”.
As to `CC(=O)N(C)c1cccc(-c2ccnc3c(C(=O)c4cccs4)cnn23)c1` [Form II, N-methyl-N-(3-{3-[2-thienylcarbonyl]-pyrazol-[1,5-α]-pyrimidin-7-yl}phenyl)acetamide], the Solubility is 6873 µg/mL (≈ 18.3 mM) in series [1] (Acetone); 8928 µg/mL (≈ 23.7 mM) in series [1] (Acetonitrile); 18.8 µg/mL (≈ 0.0499 mM) in series [1] (De-ionized water); 51 µg/mL (≈ 0.135 mM) in series [1] (Diethyl ether); 1722 µg/mL (≈ 4.57 mM) in series [1] (Ethanol, absolute (100%)); 2160 µg/mL (≈ 5.74 mM) in series [1] (Ethyl acetate). The Solubility in series [1] (Hexane) stood at 50 µg/mL (≈ 0.133 mM); in series [1] (Isopropanol) it was 457 µg/mL (≈ 1.21 mM); in series [1] (Methanol), 1915 µg/mL (≈ 5.09 mM); in series [1] (Polyethylene Glycol 400, NF), 10100 µg/mL (≈ 26.8 mM); in series [1] (Tetrahydrofuran) it was 14740 µg/mL (≈ 39.2 mM); in series [1] (Toluene), 645 µg/mL (≈ 1.71 mM). In addition, the “solubility in a range of organic solvents” value in series [1] (in words, compared with Form I) is “generally greater solubility in a range of organic solvents as compared to Form I”. For the same compound, in series [1] (in words, compared with Form I), the water solubility entry was “superior water solubility over Form I”.

(Values after patent publication EP1477169A1, “Reactions of polymorphs of N-methyl-N-(3-(3-(2-thienylcarbonyl)-pyrazol-(1,5-alpha)-pyrimidin-7-yl)phenyl)acetamide” (Neurocrine Biosciences, Inc., priority 1999, dated 2001).)
